Laboratory results published in patent US12251449B2, “Synthetic multidomain peptide biomaterials that inhibit inducible nitric oxide synthase” (William Marsh Rice University, priority 2019, dated 2025).
“Also recorded” adds a separate entry of the source.

Legend:
MOC1 tumors = assay: MOC orthotopic murine model of oral cancer (Example 9); conditions: established 4-5 mm MOC1 tumors
Protocol: MOC orthotopic murine model of oral cancer. MOC1 tumors were established by injecting 2×10^6 cells (70%:30% cells: Matrigel®Matrix) into the maxillary vestibule of the left oral cavity in C57BL/6J mice. […] Tumor growth was monitored by tumor size measurements (in diameter) taken at least two times per week using digital calipers to measure the longest dimension (single dimension). Data was then analyzed for Kaplan-Meier survival and tumor growth curves. […] Excessive tumor burden, defined as tumor diameter reaching 12 mm, tumor ulceration, or a weight loss of greater than 20% were factors that were considered for all endpoints in tumor growth and survival data.
Statistical methods. Statistical analyses were performed using Prism 7.0 (GraphPad, San Diego, CA). Statistical analyses for Kaplan-Meier survival curves were performed using the Log-rank/Mantel-Cox test. Statistical significance for tumor growth curves was determined by a two-way ANOVA test followed by selected comparison using Tukey's multiple comparison tests with multiple comparison correction. All p values were two-sided and p values less than 0.05 were considered significant.

RAW 264.7 cells = assay: Live-dead viability of RAW 264.7 cells on MDP hydrogels; assay type: cell-based, mouse; conditions: RAW macrophages on 1 wt. % hydrogel, one to three days
Protocol: Cell culture. For in vitro experiments, mouse RAW 264.7 cells (ATCC TIB-71) were grown in DMEM media supplemented with 10% Heat-Inactivated Fetal Bovine Serum (HI-FBS), L-glutamine, sodium pyruvate, and 1% penicillin-streptomycin. Cells were cultured at 37° C. with 5% CO2 and subcultured using scraping.
For 2-D culture live-dead viability studies, peptide hydrogels were pipetted into 0.4 cm^2 wells of Lab-Tek 16 well glass chamber slides (Thermo Fischer, Rochester, NY). Gels were pipetted to produce 70 μL pucks with a thickness of 1.75 mm. The gels were carefully pipetted into the bottom of each well and tapped before shear recovery to create flat gel profiles. After pipetting, the samples were allowed to shear recover for 5-10 min before adding 200 μL cell media and 10,000 RAW 264.7 cells. For each experiment time point (days 1 and 3) separate slides with duplicate gels were created. The cell media was changed every 2 days, taking care to not disturb or dislodge the gel material.
At each desired time point the following procedure was used to stain the cells for live-dead analysis. Live-dead staining solution was prepared in DPBS (Thermo Fisher Scientific, Rockford, IL) with 2 μM Calcein AM (Life Technologies), 4 μM Ethidium homodimer (Life Technologies), and 5 μg/mL Hoechst 33342 (BD Biosciences, San Jose, CA). Cell media was removed from the top of the hydrogel samples, which were then washed with PBS. Samples were then stained with 100 μL of prepared solution by incubating at 37° C. with 5% CO2 for 60 min while protected from light. After staining, the gels were removed from the glass chamber slides and placed in PBS before immediately imaging by confocal. Gels were analyzed by z-stack imaging using a Nikon A1 Confocal Microscope with a 40× water objective (405 nm blue channel laser, 488 nm green channel laser, 561 nm red channel laser). Image processing was done using NIS Elements, and Imaris Cell Counting software was used to quantify live-dead percentages.

iNOS [1] = biological target: T1, iNOS (Mus musculus, UniProt P29477); assay: iNOS knockdown in vitro Greiss assay; assay type: cell-based; conditions: for iNOS inhibition (in words): stimulated RAW macrophages cultured on the hydrogel
T1 construct: endogenous in cells; host or cells: RAW 264.7 murine macrophages stimulated with LPS and IFN-gamma
T1 sequence (P29477 1-1144): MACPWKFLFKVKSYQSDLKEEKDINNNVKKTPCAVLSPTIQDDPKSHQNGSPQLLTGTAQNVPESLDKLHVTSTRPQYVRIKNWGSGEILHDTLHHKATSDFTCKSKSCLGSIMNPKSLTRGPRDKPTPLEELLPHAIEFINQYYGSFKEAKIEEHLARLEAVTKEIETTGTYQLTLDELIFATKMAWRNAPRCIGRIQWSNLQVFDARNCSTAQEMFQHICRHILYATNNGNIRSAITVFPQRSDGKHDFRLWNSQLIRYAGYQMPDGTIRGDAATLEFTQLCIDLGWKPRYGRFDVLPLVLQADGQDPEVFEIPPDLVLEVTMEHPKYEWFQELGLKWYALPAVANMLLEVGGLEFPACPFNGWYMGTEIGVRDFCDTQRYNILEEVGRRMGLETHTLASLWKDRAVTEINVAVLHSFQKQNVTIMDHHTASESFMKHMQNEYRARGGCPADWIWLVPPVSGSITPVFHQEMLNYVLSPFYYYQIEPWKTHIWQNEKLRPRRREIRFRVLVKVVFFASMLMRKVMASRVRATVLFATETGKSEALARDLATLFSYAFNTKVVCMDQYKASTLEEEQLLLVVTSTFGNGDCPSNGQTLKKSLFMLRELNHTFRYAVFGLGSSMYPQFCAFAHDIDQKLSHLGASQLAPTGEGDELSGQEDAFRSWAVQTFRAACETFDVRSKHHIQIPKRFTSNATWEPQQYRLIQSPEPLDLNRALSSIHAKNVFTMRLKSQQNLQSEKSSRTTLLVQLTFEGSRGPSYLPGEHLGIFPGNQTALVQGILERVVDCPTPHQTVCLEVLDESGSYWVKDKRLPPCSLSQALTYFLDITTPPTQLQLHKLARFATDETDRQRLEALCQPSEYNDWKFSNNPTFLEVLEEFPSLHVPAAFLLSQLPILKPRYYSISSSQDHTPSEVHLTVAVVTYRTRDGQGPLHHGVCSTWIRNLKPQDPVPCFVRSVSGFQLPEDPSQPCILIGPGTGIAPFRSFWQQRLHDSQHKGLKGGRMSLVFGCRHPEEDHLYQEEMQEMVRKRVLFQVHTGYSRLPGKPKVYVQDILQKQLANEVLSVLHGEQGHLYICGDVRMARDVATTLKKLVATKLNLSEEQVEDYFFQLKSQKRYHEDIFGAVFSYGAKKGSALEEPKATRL
Protocol: iNOS knockdown in vitro Greiss assay. To evaluate the iNOS knockdown efficacy of various materials, the following procedure was used to test % iNOS inhibition of RAW 264.7 cells stimulated with Lipopolysaccharide (LPS, Thermo Fisher Scientific, Rockford, IL) and recombinant mouse IFN-7 (Biolegend, San Diego, CA). RAW macrophages were prepared at a stock concentration of 2.5×10^6 cells/mL, and plated at 2.5×10^5 cells per well in 24-well plates. For samples testing the efficacy of 2-D surface cell culture, 200 μL of MDP hydrogels was applied to evenly coat the surface of each well before addition of cells. Each experimental condition was performed in triplicate. The following controls were included in every experiment, 1) media alone, 2) stimulated cells alone, and 3) unstimulated cells alone. To each well, stimulation media or normal media was then added based on experimental requirement. Stimulation media was prepared with LPS (final concentration 1 μg/mL) and IFN-7 (final concentration 100 U/mL). For samples testing material efficacy in solution (e.g. free L-NIL), after 6 hrs of incubation at 37° C. with 5% CO2 the desired concentration of inhibitor was added to achieve a range of concentrations between 1 μM and 1 mM.
In all cases after 24 hours from time of stimulation, samples of cell media were collected from each well after mixing media by pipetting before collection. Media samples were placed into a 96-well plate and centrifuged at 5000 rpm for 10 min. Supernatants were removed and placed in a new clear 96-well plate, and samples were immediately analyzed using a colorimetric Greiss Assay (Cayman Chemical, Ann Arbor, MI) to assess nitrite levels (Bryan & Grisham, 2007). Color was allowed to develop for 10 min following addition of Greiss reagents, and absorbance was read at 540 nm on a plate reader. Percent iNOS inhibition for each sample was calculated by first subtracting the absorbance of the media-only baseline, and then converting to a percent of maximum nitrite signal as determined by the internal standard of stimulated cells alone.

[2] = reported in Aulisa et al., 2009; cited from earlier work
iNOS [3] = assay: Anti-nitrotyrosine immunostaining of subcutaneously injected hydrogels; assay type: in vivo, mice; conditions: subcutaneous implants, 3 and 7 days post injection
Protocol: Subcutaneous experiments and histology. C57BL/6J female mice were purchased from The Jackson Laboratory at age 8-12 weeks for subcutaneous characterization experiments. Mice were housed under specific pathogen-free conditions in standard temperature and lighting conditions with free access to food and water, and experiments were conducted with approval of the Institutional Animal Care and Use Committee (IACUC) at Rice University and according to NIH guidelines. Mice were injected with 100 μL MDP hydrogels in each of four separate sites in the subcutaneous space of the dorsal flank after the skin was shaved and sterilized with alcohol. At days 3, 7, 14, and 21 the mice were euthanized and the dorsal skin around the entire implant was removed, fixed overnight in 10% neutral buffered formalin, processed and paraffin embedded, and finally sectioned at […] thickness for staining using standard Masson's trichrome or hematoxylin and eosin (H&E) procedures, as well as immunohistochemical analyses (e.g., anti-nitrotyrosine IHC, or α-SMA blood vessel analysis).
Immunohistochemistry staining was performed on hydrogel implant tissue sections to further study in vivo properties of the L-NIL-MDP compared to related cationic MDPs. Anti-nitrotyrosine immunostaining was used to assess relative levels of nitrosylation of tyrosine within and around the subcutaneously injected hydrogel implants as a marker of iNOS inhibition (FIGS. 7A-H). It is known that the formation of nitric oxide (NO) and other nitrogen oxides in vivo can lead to observable post-translation modifications of peptides and proteins (Ischiropoulos, 2003). For example, surface-exposed 3-nitrotyrosine can be used as a marker of cell or tissue inflammation and damage by reactive nitrogen and oxygen species such as NO (Ahsan, 2013). The higher the local levels of iNOS activity, the greater should be the density of nitrosylated tyrosine. Therefore, visualization of nitrotyrosine levels by targeted antibodies can serve as a general indication of in vivo iNOS activity, or in the case of the L-NIL-MDP, local iNOS inhibition.

VEGF = assay: Serum VEGF ELISA in mice bearing B16-F0 melanoma tumors; assay type: in vivo; conditions: 5 days after single 100 μL intratumoral injection
Protocol: Evaluation of in vivo VEGF reduction using murine B16-F0 melanoma tumor model. C57BL/6J male mice were purchased from The Jackson Laboratory. […] All experiments were performed with approval of IACUC at Baylor College of Medicine (BCM) and followed established protocols. B16-F0 melanoma cell line was purchased from American Type Culture Collection (ATCC) and maintained according to manufacturer instructions (DMEM high-glucose with 10% fetal bovine serum and 1% penicillin/streptomycin). C57BL/6J mice were injected subcutaneously (s.c.) with 3×10^5 B16-F0 cells in a single flank. Once tumors became palpable (day 7 post-inoculation) mice were injected intratumorally (i.t.) with either vehicle buffer control Hank's Balanced Salt Solution (HBSS), free L-NIL dissolved in HBSS at 20 mM, K2-MDP hydrogel at 1 wt. % (5.6 mM peptide), or L-NIL-MDP hydrogel at 1 wt. % (5.2 mM peptide, or approximately 20 mM L-NIL functional groups). All injections were done using 100 μL total injection volume.
Mice were euthanized 5 days following i.t. injections and tumor/blood were collected. […] VEGF quantification of undiluted serum was performed using a mouse VEGF Quantikine ELISA kit (R&D Systems, Minneapolis, MN) following manufacturer's instructions. […] Statistical differences were evaluated using Tukey's multiple comparisons test. […]

[4] = CDN drug release kinetics from hydrogels; assay type: physicochemical
Protocol: Drug release kinetics. For release kinetics studies of CDN release from various hydrogel formulations, aliquots of CDN-loaded gel (30 μL each) were deposited into 96 well Falcon® flat bottom plates (Becton Dickinson Labware, Franklin Lakes, NJ). 30 μL gel was pipetted to generate a cylindrical puck in each well for each experiment. The pipetted gels were allowed to shear recover for approximately 5-10 min before adding 200 μL of the relevant buffer to the top of the gels (1× HBSS for all MDPs, 1× DPBS for collagen, Matrigel, 1× HBSS with 0.1 M CaCl2) for alginate, etc. according to the gelation requirements of the material). The addition of buffer was defined as t=0 for the beginning of release kinetics experiments. Table 1 summarizes the material conditions and preparation methods used for various comparative CDN delivery kinetics studies.
A Nanodrop 2000C Spectrophotometer (Thermo Scientific) was used to measure drug release by UV absorbance at 259 nm for CDN ML RR-S2 CDA, using an extinction coefficient of 24,000 M^−1cm^−1 (259 nm). Absorbance measurements were obtained by removing […] from the top of the liquid buffers above the loaded gels, over time measuring the increase in absorbance. Over the course of the first 24 hours, release of CDN was measured usually every 1-2 hours and converted to total percent released, with additional measurements also made every 24 hours for up to a week to establish when equilibrium had been reached.

Row | Compound | cell attachment, survival and proliferation (in words) (RAW 264.7 cells) | iNOS inhibition (in words) (iNOS [1]) | nitrotyrosine staining intensity (in words) (iNOS [3]) | CDN release profile (in words) [4] | also measured
1 | Nc1ncnc2c1ncn2[C@@H]1O[C@@H]2COP(O)(=S)O[C@@H]3C(O)[C@@H](COP(O)(=S)O[C@H]2[C@H]1O)O[C@H]3n1cnc2c(N)ncnc21 (stereo partly shown) [CDN, ML RR-S2 CDA] |  |  |  |  | mice surviving to the 150-day endpoint (MOC1 tumors; single intratumoral injection): 20%
2 | CC(=O)N[C@@H](CCCCN)C(=O)N[C@@H](CCCCN)C(=O)N[C@@H](CO)C(=O)N[C@@H](CC(C)C)C(=O)N[C@@H](CO)C(=O)N[C@@H](CC(C)C)C(=O)N[C@@H](CO)C(=O)N[C@@H](CC(C)C)C(=O)N[C@@H](CO)C(=O)N[C@@H](CC(C)C)C(=O)N[C@@H](CO)C(=O)N[C@@H](CC(C)C)C(=O)N[C@@H](CO)C(=O)N[C@@H](CC(C)C)C(=O)N[C@@H](CCCCN)C(=O)N[C@@H](CCCCN)C(N)=O [K2-MDP, K2(SL)6K2] | highest degrees of cell attachment and proliferation | moderate | moderate |  | median survival (MOC1 tumors; single 30 μl intratumoral injection): 46 days; free L-NIL concentration giving a comparable level of iNOS inhibition (iNOS [1]; hydrogel surface culture compared with free L-NIL in solution): < 10 µM; iNOS inhibitory activity, fold less than L-NIL-MDP (iNOS [1]; in terms of comparison to free L-NIL concentration): ~10 fold; storage modulus (G′) [2]: 200-500 Pa
3 | CC(=N)NCCCC[C@H](N)C(=O)O [L-NIL, N6-(1-iminoethyl)-L-lysine, reference compound] |  |  |  |  | reduction of systemic VEGF levels (in words) (VEGF): not achieved
4 | Ac-EESLSLSLSLSLSLEE-NH2 [E2-MDP, E2(SL)6E2] | poorer cell survival and proliferation rates | little to no iNOS inhibition |  | nearly identical release profiles to each other | 
5 | Ac-RRSLSLSLSLSLSLRR-NH2 [R2-MDP, R2(SL)6R2] | highest degrees of cell attachment and proliferation | little to no iNOS inhibition; also recorded: lowest iNOS inhibition | highest nitrotyrosine staining |  | 
6 | O5(SL)6O5 [05-MDP] |  |  |  | nearly identical release profiles to each other | 
